# Assays:
# Format in all cases: in vivo
# [1] = test system: wheat (Triticum aestivum); assay: Test A postemergence; settings: Triticum aestivum, post-emergence, 240 h, Postemergence, read-out: Wheat plant response rating (0 to 100 scale)
# Procedure, shortened: (§1)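 Greenhouse, ~10 d after spray; visual injury vs untreated controls, 0 = no effect, 100 = complete control. Preemergence: directed soil spray over planted seeds. Postemergence: plants 2–10 cm, 1–2 leaf stage. Loam/sand blend. Compound in non-phytotoxic solvent with surfactant.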
# [2] = test system: barnyardgrass (Echinochloa crus-galli); assay: Test A postemergence; settings: Echinochloa crus-galli, post-emergence, 240 h, Postemergence
# Procedure, shortened: as §1
# Kochia (Kochia scoparia) [3] = assay: Test A postemergence; settings: Bassia scoparia, post-emergence, 240 h, Postemergence, read-out: Kochia plant response rating (0 to 100 scale)
# Procedure, shortened: as §1
# [4] = test system: ryegrass, Italian (Italian ryegrass, Lolium multiflorum); assay: Test A postemergence; settings: Lolium multiflorum, post-emergence, 240 h, Postemergence, read-out: Ryegrass, Italian plant response rating (0 to 100 scale)
# Procedure, shortened: as §1
# [5] = test system: ragweed (common ragweed, Ambrosia elatior); assay: Test A postemergence; settings: Ambrosia artemisiifolia, post-emergence, 240 h, Postemergence, read-out: Ragweed plant response rating (0 to 100 scale)
# Procedure, shortened: as §1
# corn (Zea mays) = assay: Test A postemergence; settings: Zea mays, post-emergence, 240 h, Postemergence, read-out: Corn plant response rating (0 to 100 scale)
# Procedure, shortened: as §1
# [6] = test system: giant foxtail (Setaria faberii); assay: Test A postemergence; settings: Setaria faberi, post-emergence, 240 h, Postemergence, read-out: Foxtail, Giant plant response rating (0 to 100 scale)
# Procedure, shortened: as §1
# [7] = test system: blackgrass (Alopecurus myosuroides); assay: Test A postemergence; settings: Alopecurus myosuroides, post-emergence, 240 h, Postemergence, read-out: Blackgrass plant response rating (0 to 100 scale)
# Procedure, shortened: as §1
# [8] = test system: pigweed (Amaranthus retroflexus); assay: Test A postemergence; settings: Amaranthus retroflexus, post-emergence, 240 h, Postemergence, read-out: Pigweed plant response rating (0 to 100 scale)
# Procedure, shortened: as §1
# [9] = test system: barnyardgrass (Echinochloa crus-galli); assay: Test B flooded paddy test; settings: Echinochloa crus-galli, 360 h, Flood, 250 g ai/ha; visually evaluated after 13 to 15 d; read-out: Plant response rating, Barnyardgrass (0 to 100 scale where 0 is no effect and 100 is complete control)
# Procedure, shortened: (§2)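 Flooding to 3 cm over soil accompanied treatment, which consisted of adding compound to the standing water around 2-leaf plants; depth was then maintained. Visual assessment versus controls followed at 13 to 15 d (scale 0–100, 0 meaning no effect).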
# rice (Oryra sativa) = assay: Test B flooded paddy test; settings: Oryza sativa, 360 h, Flood, 250 g ai/ha; visually evaluated after 13 to 15 d; read-out: Plant response rating, Rice (0 to 100 scale where 0 is no effect and 100 is complete control)
# Procedure, shortened: as §2
# [10] = test system: sedge, umbrella (small-flower umbrella sedge, Cyperus difformis); assay: Test B flooded paddy test; settings: Cyperus difformis, 360 h, Flood, 250 g ai/ha; visually evaluated after 13 to 15 d; read-out: Plant response rating, Sedge, Umbrella (0 to 100 scale where 0 is no effect and 100 is complete control)
# Procedure, shortened: as §2
# [11] = test system: ducksalad (Heteranthera limosa); assay: Test B flooded paddy test; settings: Heteranthera limosa, 360 h, Flood, 250 g ai/ha; visually evaluated after 13 to 15 d; read-out: Plant response rating, Ducksalad (0 to 100 scale where 0 is no effect and 100 is complete control)
# Procedure, shortened: as §2
# [12] = test system: barnyardgrass (Echinochloa crus-galli); assay: Test A preemergence; settings: Echinochloa crus-galli, pre-emergence, 240 h, Preemergence
# Procedure, shortened: as §1
# Kochia (Kochia scoparia) [13] = assay: Test A preemergence; settings: Bassia scoparia, pre-emergence, 240 h, Preemergence
# Procedure, shortened: as §1
# [14] = test system: ryegrass, Italian (Italian ryegrass, Lolium multiflorum); assay: Test A preemergence; settings: Lolium multiflorum, pre-emergence, 240 h, Preemergence
# Procedure, shortened: as §1
# [15] = test system: ragweed (common ragweed, Ambrosia elatior); assay: Test A preemergence; settings: Ambrosia artemisiifolia, pre-emergence, 240 h, Preemergence
# Procedure, shortened: as §1
# [16] = test system: giant foxtail (Setaria faberii); assay: Test A preemergence; settings: Setaria faberi, pre-emergence, 240 h, Preemergence
# Procedure, shortened: as §1
# [17] = test system: pigweed (Amaranthus retroflexus); assay: Test A preemergence; settings: Amaranthus retroflexus, pre-emergence, 240 h, Preemergence
# [18] = 125 g ai/ha, visual rating about 10 d after treatment
# [19] = 31 g ai/ha, 0 is no effect, 100 is complete control
smiles,measurement,setting,value
Cc1ccncc1NC(=O)[C@H]1C(=O)N(C)C[C@@H]1c1ccc2c(c1)OC(F)(F)O2 [Compound 1351],plant injury at 125 g/ha,[1]; [18],0%
same,plant injury at 31 g/ha,[1]; [19],0%
same,pest or weed control at 125 g/ha,"[2]; 125 g ai/ha, visual rating about 10 d after treatment, read-out: Barnyardgrass plant response rating (0 to 100 scale, 0 no effect, 100 complete control)",0%
same,pest or weed control at 31 g/ha,"[2]; 31 g ai/ha, 0 is no effect, 100 is complete control, read-out: Barnyardgrass plant response rating (0 to 100 scale)",0%
same,pest or weed control at 125 g/ha,Kochia (Kochia scoparia) [3]; [18],0%
same,pest or weed control at 31 g/ha,Kochia (Kochia scoparia) [3]; [19],0%
same,pest or weed control at 125 g/ha,[4]; [18],0%
same,pest or weed control at 31 g/ha,[4]; [19],0%
same,pest or weed control at 125 g/ha,[5]; [18],0%
same,pest or weed control at 31 g/ha,[5]; [19],0%
same,plant injury at 125 g/ha,corn (Zea mays); [18],0%
same,plant injury at 31 g/ha,corn (Zea mays); [19],0%
same,pest or weed control at 125 g/ha,[6]; [18],0%
same,pest or weed control at 31 g/ha,[6]; [19],0%
same,pest or weed control at 125 g/ha,[7]; [18],0%
same,pest or weed control at 31 g/ha,[7]; [19],0%
same,pest or weed control at 125 g/ha,[8]; [18],0%
same,pest or weed control at 31 g/ha,[8]; [19],0%
same,pest or weed control at 250 g/ha,[9],0%
same,pest or weed control at 250 g/ha,rice (Oryra sativa),0%
same,pest or weed control at 250 g/ha,[10],0%
same,pest or weed control at 250 g/ha,[11],40%
same,pest or weed control at 31 g/ha,"[12]; 31 g ai/ha, 0 to 100 scale where 0 is no effect and 100 is complete control, read-out: Barnyardgrass plant response rating",0%
same,pest or weed control at 125 g/ha,"[12]; 125 g ai/ha, 0 to 100 scale (0 no effect, 100 complete control), read-out: Plant response rating, Barnyardgrass",0%
same,pest or weed control at 31 g/ha,"Kochia (Kochia scoparia) [13]; 31 g ai/ha, 0 to 100 scale where 0 is no effect and 100 is complete control, read-out: Kochia plant response rating",0%
same,pest or weed control at 125 g/ha,"Kochia (Kochia scoparia) [13]; 125 g ai/ha, 0 to 100 scale (0 no effect, 100 complete control), read-out: Plant response rating, Kochia",0%
same,pest or weed control at 31 g/ha,"[14]; 31 g ai/ha, 0 to 100 scale where 0 is no effect and 100 is complete control, read-out: Ryegrass, Italian plant response rating",0%
same,pest or weed control at 125 g/ha,"[14]; 125 g ai/ha, 0 to 100 scale (0 no effect, 100 complete control), read-out: Plant response rating, Ryegrass, Italian",0%
same,pest or weed control at 31 g/ha,"[15]; 31 g ai/ha, 0 to 100 scale where 0 is no effect and 100 is complete control, read-out: Ragweed plant response rating",0%
same,pest or weed control at 125 g/ha,"[15]; 125 g ai/ha, 0 to 100 scale (0 no effect, 100 complete control), read-out: Plant response rating, Ragweed",0%
same,pest or weed control at 31 g/ha,"[16]; 31 g ai/ha, 0 to 100 scale where 0 is no effect and 100 is complete control, read-out: Foxtail, Giant plant response rating",0%
same,pest or weed control at 125 g/ha,"[16]; 125 g ai/ha, 0 to 100 scale (0 no effect, 100 complete control), read-out: Plant response rating, Foxtail, Giant",0%
same,pest or weed control at 31 g/ha,"[17]; 31 g ai/ha, 0 to 100 scale where 0 is no effect and 100 is complete control, read-out: Pigweed plant response rating",0%
same,pest or weed control at 125 g/ha,"[17]; 125 g ai/ha, 0 to 100 scale (0 no effect, 100 complete control), read-out: Plant response rating, Pigweed",0%

# Reference: patent publication US12077503B2, “Substituted cyclic amides and their use as herbicides” (FMC CORPORATION, priority 2015, dated 2024)
